Measurements as given in patent US20090270350A1, “Pyridinone Pyrazole Urea and Pyrimidinone Pyrazole Urea Derivatives” (PFIZER INC., priority 2006, published 2009).

Molecular target: p38α (Homo sapiens, UniProt Q16539)
Test: p38α/MK2 cascade assay
Type: biochemical
Conditions: Table 2; same p38α/MK2 cascade assay; 40 minutes preincubation; read-out: p38a/MK2 Cascade 40 min Pre-Incuabtion (% Inhibition): IC50
Method in brief: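 In a cascade format, p38α was preincubated 40 min with inhibitor (1000–0.05 nM) before adding 1 nM nonactive MK2 (54-400), 5 μM MgATP and 0.5 μM FITC-Hsp27 peptide. Reaction ran 60 min in HEPES pH 7.5 with MgCl2, DTT, 2% DMSO, then EDTA-quenched. Peptide phosphorylation was measured by Caliper mobility shift to give IC50.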

p38α, sequence (Q16539 whole entry): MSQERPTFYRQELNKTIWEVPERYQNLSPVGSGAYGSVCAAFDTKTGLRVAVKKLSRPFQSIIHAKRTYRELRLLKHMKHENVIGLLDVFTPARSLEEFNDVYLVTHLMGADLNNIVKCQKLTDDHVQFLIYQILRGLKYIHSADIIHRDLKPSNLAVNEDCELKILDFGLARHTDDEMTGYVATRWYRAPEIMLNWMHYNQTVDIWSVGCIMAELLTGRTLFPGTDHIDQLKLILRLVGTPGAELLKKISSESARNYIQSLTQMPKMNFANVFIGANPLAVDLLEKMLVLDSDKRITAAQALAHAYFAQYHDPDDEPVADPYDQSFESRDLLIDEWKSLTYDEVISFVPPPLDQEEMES

IC50 [nM]	Structure (SMILES)
19.9	COc1cc(Cn2c(C)cc(OCc3ccccc3CNC(=O)Nc3cc(C(C)(C)C)nn3-c3ccc(Cl)c(O)c3)c(Cl)c2=O)ccc1Cl [Example 256, 1-[3-tert-butyl-1-(4-chloro-3-hydroxyphenyl)-1H-pyrazol-5-yl]-3-[2-({[3-chloro-1-(4-chloro-3-methoxybenzyl)-6-methyl-2-oxo-1,2-dihydropyridin-4-yl]oxy}methyl)benzyl]urea]
4.7	COc1ccc(Cn2c(C)cc(OCc3ccccc3CNC(=O)Nc3cc(C(C)(C)C)nn3-c3ccc(Cl)c(O)c3)c(Cl)c2=O)cc1 [Example 257, 1-[3-tert-butyl-1-(4-chloro-3-hydroxyphenyl)-1H-pyrazol-5-yl]-3-[2-({[3-chloro-1-(4-methoxybenzyl)-6-methyl-2-oxo-1,2-dihydro-pyridin-4-yl]oxy}methyl)benzyl]urea]
10.1	COc1cc(Cn2c(C)cc(OCc3ccccc3CNC(=O)Nc3cc(C(C)(C)C)nn3-c3ccc(O)cc3)c(Cl)c2=O)ccc1Cl [Example 258, 1-[3-tert-butyl-1-(4-hydroxyphenyl)-1H-pyrazol-5-yl]-3-[2-({[3-chloro-1-(4-chloro-3-methoxybenzyl)-6-methyl-2-oxo-1,2-dihydropyridin-4-yl]oxy}methyl)benzyl]urea]
9.2	COc1ccc(Cn2c(C)cc(OCc3ccccc3CNC(=O)Nc3cc(C(C)(C)C)nn3-c3cccc(O)c3)c(C)c2=O)cc1Cl [Example 259, 1-[3-tert-butyl-1-(3-hydroxyphenyl)-1H-pyrazol-5-yl]-3-[2-({[1-(3-chloro-4-methoxybenzyl)-3,6-dimethyl-2-oxo-1,2-dihydro-pyridin-4-yl]oxy}methyl)benzyl]urea]
15.4	COc1ccc(Cn2c(C)cc(OCc3ccccc3CNC(=O)Nc3cc(C(C)(C)C)nn3-c3ccc(Cl)c(O)c3)c(C)c2=O)cc1Cl [Example 260, 1-[3-tert-butyl-1-(4-chloro-3-hydroxyphenyl)-1H-pyrazol-5-yl]-3-[2-({[1-(3-chloro-4-methoxybenzyl)-3,6-dimethyl-2-oxo-1,2-dihydropyridin-4-yl]oxy}methyl)benzyl]urea]
8.9	Cc1cc(OCc2ccccc2CNC(=O)Nc2cc(C(C)(C)C)nn2-c2ccc(O)c(Cl)c2)c(Cl)c(=O)n1Cc1cccc(CNC(=O)CO)c1 [Example 261, N-[3-({4-[(2-{[({[3-tert-butyl-1-(3-chloro-4-hydroxyphenyl)-1H-pyrazol-5-yl]amino}carbonyl)amino]methyl}benzyl)oxy]-3-chloro-6-methyl-2-oxopyridin-1(2H)-yl}methyl)benzyl]-2-hydroxyacetamide]
84.3	COc1ccccc1Cn1c(C)cc(OCc2ccccc2CNC(=O)Nc2cc(C(C)(C)C)nn2-c2ccc(Cl)c(O)c2)c(Cl)c1=O [Example 262, 1-[3-tert-butyl-1-(4-chloro-3-hydroxyphenyl)-1H-pyrazol-5-yl]-3-[2-({[3-chloro-1-(2-methoxybenzyl)-6-methyl-2-oxo-1,2-dihydro-pyridin-4-yl]oxy}methyl)benzyl]urea]
23.1	COc1ccccc1Cn1c(C)cc(OCc2ccccc2CNC(=O)Nc2cc(C(C)(C)C)nn2-c2ccc(O)cc2)c(C)c1=O [Example 263, 1-[3-tert-butyl-1-(4-hydroxyphenyl)-1H-pyrazol-5-yl]-3-[2-({[1-(2-methoxybenzyl)-3,6-dimethyl-2-oxo-1,2-dihydropyridin-4-yl]oxy}methyl)benzyl]urea]
27.4	COc1ccccc1Cn1c(C)cc(OCc2ccccc2CNC(=O)Nc2cc(C(C)(C)C)nn2-c2ccc(O)c(Cl)c2)c(C)c1=O [Example 264, 1-[3-tert-butyl-1-(3-chloro-4-hydroxyphenyl)-1H-pyrazol-5-yl]-3-[2-({[1-(2-methoxybenzyl)-3,6-dimethyl-2-oxo-1,2-dihydro-pyridin-4-yl]oxy}methyl)benzyl]urea]
8.4	COc1ccc(Cn2c(C)cc(OCc3ccccc3CNC(=O)Nc3cc(C(C)(C)C)nn3-c3cccc(OCCO)c3)c(Cl)c2=O)cc1Cl [Example 265, 1-{3-tert-butyl-1-[3-(2-hydroxyethoxy)phenyl]-1H-pyrazol-5-yl}-3-[2-({[3-chloro-1-(3-chloro-4-methoxybenzyl)-6-methyl-2-oxo-1,2-dihydropyridin-4-yl]oxy}methyl)benzyl]urea]
19.2	COc1ccc(Cn2c(C)cc(OCc3ccccc3CNC(=O)Nc3cc(C(C)(C)C)nn3-c3ccc(O)c(Cl)c3)c(C)c2=O)cc1Cl [Example 266, 1-[3-tert-butyl-1-(3-chloro-4-hydroxyphenyl)-1H-pyrazol-5-yl]-3-[2-({[1-(3-chloro-4-methoxybenzyl)-3,6-dimethyl-2-oxo-1,2-dihydropyridin-4-yl]oxy}methyl)benzyl]urea]
16.2	COc1ccc(Cn2c(C)cc(OCc3ccccc3CNC(=O)Nc3cc(C(C)(C)C)nn3-c3ccc(O)cc3)c(C)c2=O)cc1Cl [Example 267, 1-[3-tert-butyl-1-(4-hydroxyphenyl)-1H-pyrazol-5-yl]-3-[2-({[1-(3-chloro-4-methoxybenzyl)-3,6-dimethyl-2-oxo-1,2-dihydro-pyridin-4-yl]oxy}methyl)benzyl]urea]
23.6	CSc1ccccc1Cn1c(C)cc(OCc2ccccc2CNC(=O)Nc2cc(C(C)(C)C)nn2-c2ccc(O)cc2)c(Cl)c1=O [Example 268, 1-[3-tert-butyl-1-(4-hydroxyphenyl)-1H-pyrazol-5-yl]-3-{2-[({3-chloro-6-methyl-1-[2-(methylthio)benzyl]-2-oxo-1,2-dihydro-pyridin-4-yl}oxy)methyl]benzyl}urea]
20.4	CSc1ccccc1Cn1c(C)cc(OCc2ccccc2CNC(=O)Nc2cc(C(C)(C)C)nn2-c2cccc(OCCO)c2)c(Cl)c1=O [Example 269, 1-{3-tert-butyl-1-[3-(2-hydroxyethoxy)phenyl]-1H-pyrazol-5-yl}-3-{2-[({3-chloro-6-methyl-1-[2-(methylthio)benzyl]-2-oxo-1,2-dihydropyridin-4-yl}oxy)methyl]benzyl}urea]
32.7	CSc1ccccc1Cn1c(C)cc(OCc2ccccc2CNC(=O)Nc2cc(C(C)(C)C)nn2-c2ccc(O)c(Cl)c2)c(Cl)c1=O [Example 270, 1-[3-tert-butyl-1-(3-chloro-4-hydroxyphenyl)-1H-pyrazol-5-yl]-3-{2-[({3-chloro-6-methyl-1-[2-(methylthio)benzyl]-2-oxo-1,2-dihydropyridin-4-yl}oxy)methyl]benzyl}urea]
14.1	CSc1ccccc1Cn1c(C)cc(OCc2ccccc2CNC(=O)Nc2cc(C(C)(C)C)nn2-c2cccc(O)c2)c(Cl)c1=O [Example 271, 1-[3-tert-butyl-1-(3-hydroxyphenyl)-1H-pyrazol-5-yl]-3-{2-[({3-chloro-6-methyl-1-[2-(methylthio)benzyl]-2-oxo-1,2-dihydropyridin-4-yl}oxy)methyl]benzyl}urea]
2.4	Cc1cc(OCc2ccccc2CNC(=O)Nc2cc(C(C)(C)C)nn2-c2ccc(Cl)c(O)c2)c(Cl)c(=O)n1Cc1ccc(CNC(=O)CN)cc1 [Example 272, N-[4-({4-[(2-{[({[3-tert-butyl-1-(4-chloro-3-hydroxyphenyl)-1H-pyrazol-5-yl]amino}carbonyl)amino]methyl}benzyl)oxy]-3-chloro-6-methyl-2-oxopyridin-1(2H)-yl}methyl)benzyl]-glycinamide]
